Reference: patent US20100068301A1, “COMPOSITIONS AND TREATMENTS COMPRISING 5-LIPOXYGENASE-ACTIVATING PROTEIN INHIBITORS AND NITRIC OXIDE MODULATORS” (priority 2006, published 2010)
Where two headings read alike, the source gives them in different places.

Assays:
[1] = system: naproxen induced gastric lesions; experiment: Rat gastric lesion procedure (naproxen-induced); assay type: in vivo; details: co-dosed with naproxen 40 mg/kg
Method: Gastric lesions in rat can be induced by ingestion of a non-steroidal anti-inflammatory drug (NSAID) such as naproxen. This effect is apparent with 4 to 6 hours of administration. The therapeutic effect of two different agents on preventing NSAID-induced gastric lesions first as a mono-therapy and then as a combination therapy using a fractional dose approach to test for additivity. The two agents tested include 1) 3-[3-tert-Butylsulfanyl-1-[4-(6-ethoxy-pyridin-3-yl)-benzyl]-5-(pyridin-2-ylmethoxy)-1H-indol-2-yl]-2,2-dimethyl-propionic acid (prepared according to the procedures described in US patent publication no. 2007/0105866; see Compound 2-94), a 5-lipoxygenase activating protein (FLAP) inhibitor and 2) isosorbide mononitrate (a nitric oxide donor).
Procedures: Gastric lesions were induced in 24-hour fasted male Sprague-Dawley rats (weighing 200-300 grams) by administering a single oral dose of naproxen (40 mg/kg), in the mono-therapy phase of the study Compound 2-94 was prepared at 1, 10 and 30 mg/kg and was co-dosed with naproxen. Separately, isosorbide mononitrate was prepared at 3, 10, 30 and 100 mg/kg and was co-dosed with naproxen. The ED50 (defined as the dose to produce the half maximal effect) from this phase of the experiment was used to calculate doses for the combination therapy phase of the study in which Compound 2-94 and isosorbide mononitrate were formulated together and co-dosed with Naproxen. Fractional doses tested include; 2, 1, ½ and ¼ of the ED50 values. In all conditions, four hours alter dosing, rats were anesthetized with inhaled isoflurane and the stomachs removed and cut along the lesser curvature and rinsed thoroughly of any contents using tap water. Each stomach was then pinned down flat with the mucosal layer side up and a digit image captured at an exposure of 10×. These images were then used to determine the total lesion area in mm^2. A Lesion Index (LI) was calculated for each individual stomach by the formula:
LI=[lesion area (mm^2)/total stomach area (mm^2)]×100
Individual drug effects were then determined by calculating the percent inhibition of LI for each dose group relative to the naproxen-alone group using the formula:
% inhibition=100−[LItreatment/LIcontrol(naproxen)×100]
(ED50 of Compound 2-94 with isosorbide mononitrate)/(ED50 ft for Compound 2-94 given alone)+(ED50 of isosorbide mononitrate with Compound 2-94)/(ED50 for isosorbide given alone).
The fractional value indicates what proportion of the single ED50 value was accounted for by the corresponding ED50 value of the combination.

[2] = intravenous, cited from earlier work
[3] = Compound 2-94 and isosorbide mononitrate formulated together, read-out: fraction dose ED50 (dose of the component in the combination)
[4] = oral, 4 h after dosing, estimated, read-out: ED50, inhibition of naproxen induced gastric lesions (mono-therapy)

| Molecule | ED50 [1, 3] | ED50 [1, 4] | decrease of pulmonary vascular resistance (PVR), mean ([2]; 15 patients) | mean PAP after treatment ([2]; 15 patients, decreased from 29.6) | mean systemic arterial pressure after treatment ([2]; 15 patients, reduced from 89.6, unacceptably low level) | effect on pulmonary gas exchange ([2]; by increasing QVA/QT) |
| --- | --- | --- | --- | --- | --- | --- |
| CCOc1ccc(-c2ccc(Cn3c(CC(C)(C)C(=O)O)c(SC(C)(C)C)c4cc(OCc5ccccn5)ccc43)cc2)cn1 [Compound 2-94, 3-[3-tert-Butylsulfanyl-1-[4-(6-ethoxy-pyridin-3-yl)-benzyl]-5-(pyridin-2-ylmethoxy)-1H-indol-2-yl]-2,2-dimethyl-propionic acid] | 2.5 mg/kg | 5 mg/kg | – | – | – | – |
| O=[N+]([O-])O[C@@H]1CO[C@H]2[C@@H]1OC[C@@H]2O [isosorbide mononitrate] | 7.5 mg/kg | 15 mg/kg | – | – | – | – |
| nitroprusside | – | – | 32% | 24.2 mm Hg | 70 mm Hg | markedly impairs pulmonary gas exchange |
